Test results taken from US5876715A, “Antibodies that bind novel carbohydrate ligands (myelorollins) that cause E-selectin dependent cell rolling, and uses thereof” (The Biomembrane Institute, priority 1996, dated 1999).
Entries after “also recorded” stand apart in the source; their conditions may differ.

Tested on: E-selectin-expressing CHO cells
Assay: Static adhesion assay using 96-well plates coated with gangliosides
Format: cell-based, Chinese hamster
Details: static conditions, ganglioside coated on 96-well plates (25 to 200 ng), [3H]thymidine-labeled cells, control with mAb E1C
Source text: Adhesion of E-selectin-expressing CHO cells to various quantities of poly-LacNAc gangliosides coated on 96-well plates (Falcon, Becton-Dickinson, Lincoln Park, N.J.). Points represent mean experimental minus control value in the presence of mAb E1C, ±SE of triplicate experiments. .circle-solid.SLe^x -Le^x, Δ Fr. 10-1, .tangle-solidup. Fr. 10-2, .quadrature. Fr. 9, .smallcircle. Fr. 12-2.
Static adhesion assay using 96-well plates: Poly-LacNAc gangliosides with SLe^x -Le^x structure and Frs. 9, 10-1, 10-2 and 12-2, dissolved in 50% ethanol, were serially diluted in 96-well plates (the first well contained 200 ng), and plates were dried at 37° C. for 5 hr. Plates with similar serial dilutions of poly-LacNAc gangliosides were prepared for control cell adhesion in the presence of mAb E1C (see above). E-selectin-expressing CHO cells (Handa et al., Int. J. Oncol. 6:773-781 (1995)) were metabolically labeled with [^3 H] thymidine and incubated for 2 days. Cell suspension (2×10^6 per mL) was prepared by 2 mM EDTA treatment of cultured cells. A 50 μL aliquot of this cell suspension (containing 1×10^5 cells; approximately 5000 cpm) was added to each well and incubated for 1 hr. As a control, EDTA-harvested cells were washed with DMEM and incubated with mAb E1C on ice for 30 min, followed by preparation of cell suspension as above, but containing 10 μg mAb E1C per mL. Aliquots were added to each well and incubated as above. Cells were washed 3× with PBS by inversion of the plate on blotting paper. Adherent cell count as measured by ^3 H activity was determined.
Additional details of the experiment whose data are shown in FIGS. 1A and 1B are as follows: SLe^x -Le^x and poly-LacNAc gangliosides (Frs. 7, 9, 10-1, 10-2, 12-2, 13-1 and 14) dissolved in 50% ethanol were appropriately diluted and coated on wells of 96-well plates (amounts of 25 to 200 ng as shown on abscissa). Wells were dried at 37° C. for 5 hr. Two identical plates (1 and 2) were prepared in this way. To each well of plate 1, 50 μL aliquots of RPMI containing 1×10^5 E-selectin-expressing CHO cells metabolically labeled with [^3 H] thymidine were added. To each well of plate 2, aliquots of the same cell preparation preincubated with anti-E-selectin mAb E1C (10 μg Ig per mL) and suspended in RPMI containing mAb E1C were added. Plates 1 and 2 were incubated for 25 min. and washed with PBS. […] Each well was filled with 200 μL of PBS, carefully shaken, and plates were inverted on blotting paper for 10 min. All non-adherent cells were sedimented and absorbed on the blotting paper. Adherent cells remaining on wells were counted. Cell numbers (expressed on ordinate) were calculated based on measured radioactivity. Solid circle, SLe^x -Le^x without E1C (from plate 1). Open circle, SLe^x -Le^x with E1C (from plate 2). Adhesion values from various poly-LacNAc gangliosides with and without E1C were all near zero and cannot be distinguished on the graph.
Static adhesion assay using 96-well plates: Poly-LacNAc gangliosides with SLe^x -Le^x structure, and Fr. 9, 10-1, 10-2, and 12-2, dissolved in 50% ethanol, were serially diluted in 96-well plates (the first well contained […]), and plates were dried at 37° C. for 5 hr. Plates with similar serial dilutions of poly-LacNAc gangliosides were prepared for control cell adhesion in the presence of mAb E1C […] (see above). E-selectin-expressing CHO cells (Handa et al., 1995, Int. J. Oncol. 6:773-781) were metabolically labeled with [^3 H]thymidine and incubated for 2 days. Cell suspension (2×10^6 per mL) was prepared by 2 mM EDTA treatment of cultured cells. A 50 μL aliquot of this cell suspension (containing 1×10^5 cells; about 5000 cpm) was added to each well and incubated for 1 hr. As a control, EDTA-harvested cells were washed with DMEM and incubated with mAb E1C (10 μg/ml) on ice for 30 min, followed by preparation of cell suspension as above, but containing 10 μg E1C per mL. Aliquots were added to each well and incubated as above. […]

Row | Substance | adhesion of E-selectin-expressing CHO cells | adhesion of E-selectin-expressing CHO cells (listed as SLE^x -Le^x)
1 | VI^3 NeuAcnLc6 Cer [Fr. 7] | little or no adhesion | 
2 | VI^3 NeuAcV^3 FucIII^3 FucnLc6 Cer [SLe^x -Le^x, reference compound] | much stronger adhesion than myelorollin (Frs. 13-1 and 14); also recorded: capable of binding E-selectin expressing cells | bound to E-selectin
3 | VIII^3 NeuAcV^3 FucnLc8 Cer [Fr. 10-1] | little or no adhesion | 
4 | X^3 NeuAcVII^3 FucnLc10 Cer [Fr. 12-2] | little or no adhesion | 
5 | VIII^3 NeuAcIII^3 FucnLc8 Cer [Fr. 10-2] | little or no adhesion | 
